Source: US10710986B2, “PD-1/PD-L1 inhibitors” (Gilead Sciences, Inc., priority 2018, dated 2020)

Biological target: PD-1/PD-L1 (Homo sapiens (Human), UniProt Q9NZQ7)
Assay: PD-1/PD-L1 biochemical protein-protein interaction assay (ALPHA)
Settings: 0.3 nM His tagged PD-L1, 2.5 nM biotinylated Fc-PD-1, 60 minutes at 25° C., read-out: IC50 PD-L1-PD1

Sequence of PD-1/PD-L1 (Q9NZQ7 19-238): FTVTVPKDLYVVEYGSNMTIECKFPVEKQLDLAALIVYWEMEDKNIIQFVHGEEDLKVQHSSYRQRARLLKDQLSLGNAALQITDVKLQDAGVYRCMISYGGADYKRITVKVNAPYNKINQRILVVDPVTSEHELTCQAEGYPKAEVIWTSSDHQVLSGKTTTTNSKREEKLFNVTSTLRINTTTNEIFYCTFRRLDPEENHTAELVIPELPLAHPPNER

Row | IC50 [nM] | Structure (SMILES)
1 | 0.313 | CCn1cc(CN2CC3(CCC(=O)N3)C2)c2ncc(-c3cccc(-c4cccc(-c5cnc(CN6CC7(CCC(=O)N7)C6)c(OC)n5)c4Cl)c3Cl)nc21 [compound 610]
2 | 0.21 | CCn1cc(CN2CC(O)C2)c2ncc(-c3cccc(-c4cccc(-c5cnc(CN6CC(O)C6)c(OC)n5)c4Cl)c3Cl)nc21 [compound 611]
3 | 0.064 | COc1nc(-c2cccc(-c3cccc(-c4cnc5c(CN6CC7(C6)CN(C(C)=O)C7)cn(C)c5n4)c3Cl)c2Cl)cnc1CN1CC2(C1)CN(C(C)=O)C2 [compound 612]
4 | 0.182 | COc1nc(-c2cccc(-c3cccc(-c4cnc5c(CN6CC7(CCC(=O)N7)C6)cn(C)c5n4)c3Cl)c2Cl)cnc1CN1CC2(CCC(=O)N2)C1 [compound 613]
5 | 0.079 | COc1nc(-c2cccc(-c3cccc(-c4cnc(CNC[C@@H]5CCC(=O)N5)c(OC)n4)c3F)c2Cl)ccc1CNC[C@@H]1CCC(=O)N1 [compound 614]
6 | 0.291 | COc1nc(-c2cccc(-c3cccc(-c4cnc(CNCCO)c(OC)n4)c3F)c2Cl)ccc1CNCCO [compound 615]
7 | 0.069 | COc1nc(-c2cccc(-c3cccc(-c4cnc(CN5CC[C@@H](CO)C5)c(OC)n4)c3F)c2Cl)ccc1CN1CC[C@@H](CO)C1 [compound 616]
8 | 0.064 | COc1nc(-c2cccc(-c3cccc(-c4cnc(CN5CC6(C5)CN(C(C)=O)C6)c(OC)n4)c3F)c2Cl)ccc1CN1CC2(C1)CN(C(C)=O)C2 [compound 617]
9 | 0.064 | COc1nc(-c2cccc(-c3cccc(-c4cnc(CN5CC6(CCC(=O)N6)C5)c(OC)n4)c3F)c2Cl)ccc1CN1CC2(CCC(=O)N2)C1 [compound 618]
10 | 0.178 | COc1nc(-c2cccc(-c3cccc(-c4cnc(CN5CC(O)C5)c(OC)n4)c3F)c2Cl)ccc1CN1CC(O)C1 [compound 619]
11 | 0.101 | COc1nc(-c2cccc(-c3cccc(-c4cnc(CNC[C@@H]5CCC(=O)N5)c(OC)n4)c3Cl)c2Cl)cnc1CNCCOc1ccccn1 [compound 620]
12 | 1.05 | COc1nc(-c2cccc(-c3cccc(-c4cnc(CN5CC(C)(N)C5)c(OC)n4)c3Cl)c2Cl)cnc1CN1CC(C)(N)C1 [compound 621]
13 | 0.26 | COc1nc(-c2cccc(-c3cccc(-c4cnc(CN5CC(C)(N)C5)c(OC)n4)c3Cl)c2Cl)cnc1CNC[C@@H]1CCC(=O)N1 [compound 622]
14 | 0.152 | COc1nc(-c2cccc(-c3cccc(-c4cnc(CN5CC[C@H](CO)C5)c(OC)n4)c3Cl)c2Cl)cnc1CN1CC[C@H](CO)C1 [compound 624]
15 | 0.074 | COc1nc(-c2cccc(-c3cccc(-c4cnc(CN5CC[C@H](CO)C5)c(OC)n4)c3Cl)c2Cl)cnc1CNC[C@@H]1CCC(=O)N1 [compound 625]
16 | 0.064 | COc1nc(-c2cccc(-c3cccc(-c4cnc(CN5CC[C@@H](CO)C5)c(OC)n4)c3Cl)c2Cl)cnc1CN1CC[C@@H](CO)C1 [compound 626]
17 | 0.081 | COc1nc(-c2cccc(-c3cccc(-c4cnc(CN5CC[C@@H](CO)C5)c(OC)n4)c3Cl)c2Cl)cnc1CNC[C@@H]1CCC(=O)N1 [compound 627]
18 | 0.064 | COc1nc(-c2cccc(-c3cccc(-c4cc(C)c(CNC[C@@H]5CCC(=O)N5)c(OC)n4)c3Cl)c2Cl)cnc1CNC[C@@H]1CCC(=O)N1 [compound 628]
19 | 0.083 | COc1nc(-c2cccc(-c3cccc(-c4cnc(CN5CC(C)(O)C5)c(OC)n4)c3Cl)c2Cl)cnc1CN1CC(O)C1 [compound 629]
20 | 0.437 | COc1nc(-c2cccc(-c3cccc(-c4cnc(CN)c(OC)n4)c3Cl)c2Cl)ccc1CNC[C@@H]1CCC(=O)N1 [compound 630]
21 | 0.064 | COc1nc(-c2cccc(-c3cccc(-c4cnc(CN5CC(C)(O)C5)c(OC)n4)c3Cl)c2Cl)ccc1CNC[C@@H]1CCC(=O)N1 [compound 631]
22 | 0.172 | COc1nc(-c2cccc(-c3cccc(-c4cnc(CN5CC6(C5)CN(C(C)=O)C6)c(OC)n4)c3Cl)c2Cl)ccc1CNC[C@@H]1CCC(=O)N1 [compound 632]
23 | 0.064 | COc1nc(-c2cccc(-c3cccc(-c4cnc(CN5CC6(CNC(=O)C6)C5)c(OC)n4)c3Cl)c2Cl)ccc1CNC[C@@H]1CCC(=O)N1 [compound 633]
24 | 0.064 | COc1nc(-c2cccc(-c3cccc(-c4cnc(CN5CCC(CO)(CO)C5)c(OC)n4)c3Cl)c2Cl)cnc1CN1CCC(CO)(CO)C1 [compound 634]
25 | 0.098 | COc1nc(-c2cccc(-c3cccc(-c4cnc(CN5CC(C(C)(C)O)C5)c(OC5CC5)n4)c3Cl)c2Cl)ccc1CN1CC(C(C)(C)O)C1 [compound 635]
26 | 0.12 | COc1nc(-c2cccc(-c3cccc(-c4cnc(CN5CC6(CCC(=O)N6)C5)c(OC5CC5)n4)c3Cl)c2Cl)ccc1CN1CC2(CCC(=O)N2)C1 [compound 636]
27 | 0.134 | COc1nc(-c2cccc(-c3cccc(-c4cnc(CN5CC6(CNC(=O)C6)C5)c(OC5CC5)n4)c3Cl)c2Cl)ccc1CN1CC2(CNC(=O)C2)C1 [compound 637]

Row | IC50 [nM] | Structure (SMILES)
28 | 0.079 | COc1nc(-c2cccc(-c3cccc(-c4cnc(CNC[C@@H]5CCC(=O)N5)c(OC5CC5)n4)c3Cl)c2Cl)ccc1CNC[C@@H]1CCC(=O)N1 [compound 638]
29 | 0.066 | COc1nc(-c2cccc(-c3cccc(-c4cnc(CN[C@H]5C[C@@H](C(N)=O)C5)c(OC)n4)c3Cl)c2Cl)ccc1CNC[C@@H]1CNC(=O)C1 [compound 639]
30 | 0.167 | COc1nc(-c2cccc(-c3cccc(-c4cnc(CN[C@H]5CCC[C@H]5O)c(OC)n4)c3Cl)c2Cl)ccc1CNC[C@@H]1CNC(=O)C1 [compound 640]
31 | 0.064 | COc1nc(-c2cccc(-c3cccc(-c4cnc(C5=NCCN5)c(OC)n4)c3Cl)c2Cl)ccc1CN1CC2(CCC(=O)N2)C1 [compound 641]
32 | 0.064 | COc1nc(-c2cccc(-c3cccc(-c4cnc(C5=NCCN5)c(OC)n4)c3Cl)c2Cl)ccc1CN1CC(C)(O)C1 [compound 642]
33 | 0.064 | COc1nc(-c2cccc(-c3cccc(-c4cnc(C5=NC[C@H](C)N5)c(OC)n4)c3Cl)c2Cl)ccc1CNC[C@@H]1CCC(=O)N1 [compound 643]
34 | 0.093 | COc1nc(-c2cccc(-c3cccc(-c4cnc(C5=NC[C@@H](C)N5)c(OC)n4)c3Cl)c2Cl)ccc1CNC[C@@H]1CCC(=O)N1 [compound 644]
35 | 0.064 | COc1nc(-c2cccc(-c3cccc(-c4cnc(C5=NCCN5)c(OC)n4)c3Cl)c2Cl)ccc1CNC[C@@H]1CCC(=O)N1 [compound 645]
36 | 0.064 | COc1nc(-c2cccc(-c3cccc(-c4cnc(C5=NC[C@H](C)N5)c(OC)n4)c3Cl)c2Cl)cnc1CNC[C@@H]1CCC(=O)N1 [compound 646]
37 | 0.064 | COc1nc(-c2cccc(-c3cccc(-c4cnc(C5=NC[C@@H](C)N5)c(OC)n4)c3Cl)c2Cl)cnc1CNC[C@@H]1CCC(=O)N1 [compound 647]
38 | 0.08 | COc1nc(-c2cccc(-c3cccc(-c4cnc(CN[C@H]5CC[C@@H](CO)C5)c(OC)n4)c3Cl)c2Cl)cnc1CNC[C@@H]1CCC(=O)N1 [compound 648]
39 | 0.128 | COc1nc(-c2cccc(-c3cccc(-c4cnc(CN5CC6(CCC(=O)N6)C5)c(OC)n4)c3Cl)c2F)ccc1CN1CC2(CCC(=O)N2)C1 [compound 649]
40 | 0.064 | COc1nc(-c2cccc(-c3cccc(-c4cc(C)c(CN5CC6(CCC(=O)N6)C5)c(OC)n4)c3F)c2Cl)cnc1CN1CC2(CCC(=O)N2)C1 [compound 650]
41 | 0.064 | COc1nc(-c2cccc(-c3cccc(-c4cc(C)c(CN5CC6(CNC(=O)C6)C5)c(OC)n4)c3F)c2Cl)cnc1CN1CC2(CNC(=O)C2)C1 [compound 651]
42 | 0.12 | COc1nc(-c2cccc(-c3cccc(-c4cc(C)c(CNC[C@H]5C[C@H](O)C5)c(OC)n4)c3Cl)c2Cl)cnc1CNC[C@@H]1CCC(=O)N1 [compound 652]
43 | 0.064 | COc1nc(-c2cccc(-c3cccc(-c4cc(C)c(CN5CC6(C5)CN(C(C)=O)C6)c(OC)n4)c3Cl)c2Cl)cnc1CNC[C@@H]1CCC(=O)N1 [compound 653]
44 | 0.071 | COc1nc(-c2cccc(-c3cccc(-c4cc(C)c(CN5CC(C(=O)O)C6(CCOC6)C5)c(OC)n4)c3Cl)c2Cl)cnc1CNC[C@@H]1CCC(=O)N1 (some centres unmarked) [compound 654]
45 | 0.064 | COc1nc(-c2cccc(-c3cccc(-c4cc(C)c(CN5C[C@@H]6CCC[C@]6(C(=O)O)C5)c(OC)n4)c3Cl)c2Cl)cnc1CNC[C@@H]1CCC(=O)N1 [compound 655]
46 | 0.167 | COc1nc(-c2cccc(-c3cccc(-c4cnc(CNC[C@H]5C[C@H](O)C5)c(OC)n4)c3Cl)c2Cl)ccc1CNC[C@@H]1CCC(=O)N1 [compound 656]
47 | 0.064 | COc1nc(-c2cccc(-c3cccc(-c4cnc(CN5CC(OCC(N)=O)C5)c(OC)n4)c3Cl)c2Cl)cnc1CN1CC(OCC(N)=O)C1 [compound 657]
48 | 0.196 | COc1nc(-c2cccc(-c3cccc(-c4cnc(CNC[C@@H]5CCC(=O)N5)c(OC)n4)c3Cl)c2Cl)cnc1CNCC1CCNC1=O (some centres unmarked) [compound 658]
49 | 0.121 | COc1nc(-c2cccc(-c3cccc(-c4cnc(CNC[C@@H]5CCC(=O)N5)c(OC)n4)c3Cl)c2Cl)cnc1CNCC1CCNC(=O)C1 (some centres unmarked) [compound 659]
50 | 0.135 | COc1nc(-c2cccc(-c3cccc(-c4cnc(CNCC5CCNC(=O)C5)c(OC)n4)c3Cl)c2Cl)cnc1CNCC1CCNC(=O)C1 (centres unmarked) [compound 660]
51 | 0.064 | COc1nc(-c2cccc(-c3cccc(-c4cnc(CNCC5CCNC5=O)c(OC)n4)c3Cl)c2Cl)cnc1CNCC1CCNC1=O (centres unmarked) [compound 661]
52 | 0.082 | COc1nc(-c2cccc(-c3cccc(-c4cnc(CN5CC6(C5)CN(C(C)=O)C6)c(OC)n4)c3Cl)c2C)cnc1CN1CC2(C1)CN(C(C)=O)C2 [compound 662]
53 | 0.281 | COc1nc(-c2cccc(-c3cccc(-c4cnc(CN5CC[C@@H](CNC(C)=O)C5)c(OC)n4)c3Cl)c2Cl)cnc1CN1CC[C@@H](CNC(C)=O)C1 [compound 663]
